Assay results published in ChEMBL document CHEMBL3272002, “Central nervous system depressants. 13. s-Triazolo-1,5-benzodiazepin-5-ones” (1976).
Calls of active or inactive are those of the source. The rule behind the calls is not given here.

Tests used:
Mus musculus [1] = assay: Inhibition of nicotine-induced response in ip dosed CF-1 mouse; format: functional; conditions: CF-1, ip
Mus musculus [2] = assay: Anticonvulsant activity in ip dosed CF-1 mouse assessed as reduction of strychnine-induced response; format: functional; conditions: CF-1, ip
Mus musculus [3] = assay: Anticonvulsant activity in ip dosed CF-1 mouse assessed as reduction of pentylenetetrazole-induced response; format: functional; conditions: CF-1, ip
Mus musculus [4] = assay: Reduction in hypoxic stress in ip dosed CF-1 mouse; format: functional; conditions: CF-1, ip
Mus musculus [5] = assay: Inhibition of nicotine-induced response in CF-1 mouse at 100 mg/kg, ip; format: functional, organism-based; parameters: dose 100 mg/kg
Mus musculus [6] = assay: Anticonvulsant activity in CF-1 mouse assessed as reduction of strychnine-induced response at 100 mg/kg, ip; format: functional, organism-based; parameters: dose 100 mg/kg
Mus musculus [7] = assay: Anticonvulsant activity in CF-1 mouse assessed as reduction of pentylenetetrazole-induced response at 100 mg/kg, ip; format: functional, organism-based; parameters: dose 100 mg/kg
Mus musculus [8] = assay: Reduction in hypoxic stress in CF-1 mouse at 100 mg/kg, ip; format: functional, organism-based; parameters: dose 100 mg/kg

CNC1=Nc2ccc(Cl)cc2C(c2ccccc2)=[N+]([O-])C1 [CHLORDIAZEPOXIDE]
ED50 (Mus musculus [1]): 1 mg/kg
ED50 (Mus musculus [2]): 13 mg/kg
ED50 (Mus musculus [3]): 2.6 mg/kg
ED50 (Mus musculus [4]): 10.5 mg/kg

CN(C)Cc1nnc2n1-c1ccc(Cl)cc1N(c1ccccc1)C(=O)C2
ED50 (Mus musculus [1]): 89 mg/kg
ED50 (Mus musculus [3]): 25 mg/kg

O=C1Cc2nnc(CCl)n2-c2ccc(Cl)cc2N1c1ccccc1
inhibition (Mus musculus [5]): inactive
Activity (Mus musculus [6]): inactive
Activity (Mus musculus [7]): inactive
Activity (Mus musculus [8]): inactive

Cc1nnc2n1-c1ccc(Cl)cc1N(c1ccccc1)C(=O)C2
ED50 (Mus musculus [1]): 5 mg/kg
ED50 (Mus musculus [2]): 28 mg/kg
ED50 (Mus musculus [3]): 7 mg/kg
ED50 (Mus musculus [4]): 60 mg/kg
